The structures appear in SMILES notation.

The results in this text go back to patent US20040087571A1, “Methods of using CCR1 antagonists as immunomodulatory agents” (Pfizer Inc, priority 2002, published 2004).

By melting point is commonly meant the temperature of the solid-liquid transition. `NC(=O)[C@@H](C[C@H](O)[C@H](Cc1ccccc1)NC(=O)c1cnc2ccccc2n1)C1(O)CCCCC1` [Example 243, Quinoxaline-2-carboxylic acid [1(S)-benzyl-4(S)-carbamoyl-2(S)-hydroxy-4-(1-hydroxy-cyclohexyl)-butyl]-amide]: the melting point lay within 187 to 189 °C. With `CC1CC([C@H](C[C@H](O)[C@H](Cc2ccccc2)NC(=O)c2cnc3ccccc3n2)C(N)=O)CC(C)O1` (stereo partly drawn) [Example 244, Quinoxaline-2-carboxylic acid [1(S)-benzyl-4(S)-carbamoyl-4-(2,6-dimethyl-tetrahydro-pyran-4-yl)-2(S)-hydroxy-butyl]-amide] the figure was 195 to 198 °C. With `CC(C)(F)CC[C@H](C[C@H](O)[C@H](Cc1cccc(F)c1)NC(=O)c1cnc2ccccc2n1)C(N)=O` [Example 245, Quinoxaline-2-carboxylic acid [4(R)-carbamoyl-7-fluoro-1(S)-(3-fluoro-benzyl)-2(S)-hydroxy-7-methyl-octyl]-amide] the figure was 225 to 227 °C.

Consider `CC(C)(F)CC[C@H](C[C@H](O)[C@H](Cc1ccc(I)cc1)NC(=O)c1cnc2ccccc2n1)C(N)=O` [Example 250, Quinoxaline-2-carboxylic acid [4(R)-carbamoyl-7-fluoro-2(S)-hydroxy-1(S)-(4-iodo-benzyl)-7-methyl-octyl]-amide], for which the melting point was in the range of 185.5 to 187.5 °C.

`NC(=O)[C@@H](C[C@H](O)[C@H](Cc1ccccc1)NC(=O)c1cnc2ccccc2n1)C1(O)CCCCC1` [Example 260, Quinoxaline-2-carboxylic acid [1(S)-benzyl-4(S)-carbamoyl-2(S)-hydroxy-4-(1-hydroxy-cyclohexyl)-butyl]-amide] showed a melting point of 210 to 211 °C. The result for `NC(=O)[C@@H](C[C@H](O)[C@H](Cc1ccccc1)NC(=O)c1cnc2ccccc2c1)C1CCCCC1` [Example 261, Quinoline-3-carboxylic acid (1(S)-benzyl-4(S)-carbamoyl-4-cyclohexyl-2(S)-hydroxy-butyl)-amide] reads 231 °C; that for `NC(=O)[C@@H](C[C@H](O)[C@H](Cc1ccccc1)NC(=O)c1ccc2ccccc2n1)C1CCCCC1` [Example 262, Quinoline-2-carboxylic acid (1(S)-benzyl-4(S)-carbamoyl-4-cyclohexyl-2(S)-hydroxy-butyl)-amide], 208 to 210 °C. Consider `CC(C)(F)CC[C@H](C[C@H](O)[C@@H](NC(=O)c1cnc2ccccc2n1)c1ccccc1)C(N)=O` [Example 266, Quinoxaline-2-carboxylic acid (4(R)-carbamoyl-7-fluoro-2(S)-hydroxy-7-methyl-1(S)-phenyl-octyl)-amide], for which the melting point was in the range of 159 to 160.5 °C. The result for `NC(=O)[C@H](C[C@H](O)[C@H](Cc1cccs1)NC(=O)c1cnc2ccccc2n1)C1(O)CCCCC1` [Example 268, Quinoxaline-2-carboxylic acid [4(R)-carbamoyl-2(S)-hydroxy-4-(1-hydroxy-cyclohexyl)-1(S)-thiophen-2-ylmethyl-butyl]-amide] reads 206 to 207 °C; that for `NC(=O)[C@@H](C[C@H](O)[C@H](Cc1ccccc1)NC(=O)c1cnc2ccccc2n1)C1(O)CCSCC1` [Example 269, Quinoxaline-2-carboxylic acid [1(S)-benzyl-4(S)-carbamoyl-2(S)-hydroxy-4-(4-hydroxy-tetrahydro-thiopyran-4-yl)-butyl]-amide], 123 to 125 °C; that for `NC(=O)[C@H](Cc1ccccc1)C[C@H](O)[C@H](Cc1ccccc1)NC(=O)c1cnc2c(F)c(F)ccc2c1` [Example 273, 7,8-Difluoro-quinoline-3-carboxylic acid (1(S)-benzyl-4(R)-carbamoyl-2(S)-hydroxy-5-phenyl-pentyl)-amide], 233 to 235 °C. The result for `NC(=O)[C@H](Cc1ccccc1Cl)C[C@H](O)[C@H](Cc1ccccc1)NC(=O)c1cnc2ccccc2n1` [Example 274, Quinoxaline-2-carboxylic acid [1(S)-benzyl-4(R)-carbamoyl-5-(2-chloro-phenyl)-2(S)-hydroxy-pentyl]-amide] reads 182 to 185 °C.
